In article PMC9656787, “Design, Synthesis and Biological Evaluation of Novel 1,3,5-Triazines: Effect of Aromatic Ring Decoration on Affinity to 5-HT7 Receptor” (International Journal of Molecular Sciences, 2022):
“And” between values parts separate entries of the source, which are not always exact repeats. Equal entries are not always repeated.

Key:
5-HT1A receptor = target: T1, 5-HT1A receptor (Homo sapiens, UniProt P08908); assay: Radioligand binding assay, 5-HT1A receptor; details: mean ± SD, triplicate at 7 concentrations, Cheng-Prusoff; read-out: Affinity Ki 5-HT1AR
T1 construct: host or cells: cell membranes from cultured cells
T1 sequence (P08908 1-422): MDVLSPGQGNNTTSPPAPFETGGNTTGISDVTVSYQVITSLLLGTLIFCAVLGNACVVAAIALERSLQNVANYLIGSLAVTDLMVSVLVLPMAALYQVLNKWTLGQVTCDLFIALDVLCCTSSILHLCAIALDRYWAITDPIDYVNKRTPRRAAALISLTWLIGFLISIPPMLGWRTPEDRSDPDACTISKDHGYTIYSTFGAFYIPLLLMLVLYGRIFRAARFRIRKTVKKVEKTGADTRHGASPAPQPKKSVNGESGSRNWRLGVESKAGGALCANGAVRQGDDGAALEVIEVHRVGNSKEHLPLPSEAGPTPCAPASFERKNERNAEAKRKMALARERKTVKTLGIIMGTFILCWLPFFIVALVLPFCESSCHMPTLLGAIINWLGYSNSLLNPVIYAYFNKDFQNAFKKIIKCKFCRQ
Method: (§1) The affinity of the studied compounds to 5-HT1A, 5-HT2A, 5-HT6, 5-HT7, and D2 receptors was evaluated by a radioligand assay, as reported previously (Table 1). Each compound was tested in triplicate at seven concentrations (from 0.1 nM to 100 µM). Inhibition constants (Ki) were calculated from the Cheng–Prusoff equation [23].
(§2) The cell culture, cell membranes, and radioligand binding assays were performed in accordance with standard protocols.

5-HT7 receptor = target: T2, 5-HT7 receptor (Homo sapiens, UniProt P34969); assay: Radioligand binding assay, 5-HT7 receptor; details: for activity with respect to 5-HT7R (in words): SAR discussion of radioligand data; for Ki: mean ± SD, triplicate at 7 concentrations, Cheng-Prusoff, read-out: Affinity Ki 5-HT7R
T2 construct: host or cells: cell membranes from cultured cells
T2 sequence (P34969 1-432 limits assumed): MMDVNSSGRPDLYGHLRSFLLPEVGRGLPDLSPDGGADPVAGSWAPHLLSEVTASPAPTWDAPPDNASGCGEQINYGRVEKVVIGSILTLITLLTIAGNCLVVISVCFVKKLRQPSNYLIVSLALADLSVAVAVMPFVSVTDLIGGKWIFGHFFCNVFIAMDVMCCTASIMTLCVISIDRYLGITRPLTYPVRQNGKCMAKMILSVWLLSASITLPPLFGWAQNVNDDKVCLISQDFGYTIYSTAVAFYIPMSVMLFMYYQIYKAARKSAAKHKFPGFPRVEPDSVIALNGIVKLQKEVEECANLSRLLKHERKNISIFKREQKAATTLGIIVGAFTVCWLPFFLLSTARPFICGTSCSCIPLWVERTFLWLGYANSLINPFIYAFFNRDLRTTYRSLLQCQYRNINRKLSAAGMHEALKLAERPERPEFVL
Method: as §1, §2

5-HT2A receptor = target: T3, 5-HT2A receptor (Homo sapiens, UniProt P28223); assay: Radioligand binding assay, 5-HT2A receptor; details: mean ± SD, triplicate at 7 concentrations, Cheng-Prusoff; read-out: Affinity Ki 5-HT2AR
T3 construct: host or cells: cell membranes from cultured cells
T3 sequence (P28223 whole entry): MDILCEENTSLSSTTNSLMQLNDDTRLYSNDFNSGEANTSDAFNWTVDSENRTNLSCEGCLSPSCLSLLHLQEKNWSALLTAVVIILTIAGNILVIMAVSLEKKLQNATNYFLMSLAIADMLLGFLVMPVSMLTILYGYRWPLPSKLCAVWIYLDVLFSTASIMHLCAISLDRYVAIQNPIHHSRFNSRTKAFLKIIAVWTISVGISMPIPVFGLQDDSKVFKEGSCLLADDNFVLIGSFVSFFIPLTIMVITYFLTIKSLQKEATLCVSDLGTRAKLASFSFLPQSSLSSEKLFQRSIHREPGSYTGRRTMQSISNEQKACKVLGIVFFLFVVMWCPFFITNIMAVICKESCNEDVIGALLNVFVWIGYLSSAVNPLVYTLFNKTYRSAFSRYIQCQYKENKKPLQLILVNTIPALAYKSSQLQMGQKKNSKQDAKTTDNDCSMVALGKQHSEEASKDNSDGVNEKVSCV
Method: as §1, §2

5-HT6 receptor = target: T4, 5-HT6 receptor (Homo sapiens, UniProt P50406); assay: Radioligand binding assay, 5-HT6 receptor; details: mean ± SD, triplicate at 7 concentrations, Cheng-Prusoff; read-out: Affinity Ki 5-HT6R
T4 construct: host or cells: cell membranes from cultured cells
T4 sequence (P50406 whole entry): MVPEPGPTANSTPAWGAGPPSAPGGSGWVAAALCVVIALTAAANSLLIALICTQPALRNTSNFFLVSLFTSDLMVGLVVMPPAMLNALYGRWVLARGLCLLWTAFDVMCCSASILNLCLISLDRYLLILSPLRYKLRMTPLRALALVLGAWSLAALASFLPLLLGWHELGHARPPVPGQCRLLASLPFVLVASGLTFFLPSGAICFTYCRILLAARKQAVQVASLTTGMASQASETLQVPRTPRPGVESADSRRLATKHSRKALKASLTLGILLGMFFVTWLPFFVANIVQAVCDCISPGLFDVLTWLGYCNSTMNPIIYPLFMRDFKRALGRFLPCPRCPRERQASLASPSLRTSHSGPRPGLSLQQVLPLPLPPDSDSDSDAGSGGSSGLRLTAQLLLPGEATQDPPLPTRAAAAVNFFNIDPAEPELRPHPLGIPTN
Method: as §1, §2

D2 receptor = target: T5, D2 receptor (Homo sapiens, UniProt P14416); assay: Radioligand binding assay, D2 receptor; details: mean ± SD, triplicate at 7 concentrations, Cheng-Prusoff; read-out: Affinity Ki D2R
T5 construct: host or cells: cell membranes from cultured cells
T5 sequence (P14416 whole entry): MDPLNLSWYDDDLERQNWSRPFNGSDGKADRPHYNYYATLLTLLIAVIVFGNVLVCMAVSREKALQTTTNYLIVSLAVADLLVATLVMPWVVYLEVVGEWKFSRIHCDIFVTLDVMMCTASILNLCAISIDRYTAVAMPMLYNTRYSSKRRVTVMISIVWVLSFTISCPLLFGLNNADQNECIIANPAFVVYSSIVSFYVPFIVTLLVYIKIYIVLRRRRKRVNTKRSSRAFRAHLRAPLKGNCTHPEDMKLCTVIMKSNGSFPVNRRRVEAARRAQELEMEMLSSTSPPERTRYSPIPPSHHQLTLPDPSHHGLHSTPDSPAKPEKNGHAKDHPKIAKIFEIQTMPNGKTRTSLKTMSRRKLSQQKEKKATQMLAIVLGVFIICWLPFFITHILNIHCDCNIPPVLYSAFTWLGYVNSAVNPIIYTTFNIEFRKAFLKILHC
Method: as §1, §2

Row | SMILES | Ki (5-HT1A receptor) [nM] | melting point [°C] | activity with respect to 5-HT7R (in words) (5-HT7 receptor) | Ki (5-HT7 receptor) | Ki (5-HT2A receptor) [nM] | Ki (5-HT6 receptor) [nM] | Ki (D2 receptor) [nM]
1 | Cl.N#Cc1ccc2[nH]cc(CCNc3nc(N)nc(NCCc4ccccc4)n3)c2c1 [Compound 1, 3-(2-((4-Amino-6-(Phenethylamino)-1,3,5-Triazin-2-yl)Amino)Ethyl)-1H-Indole-5-Carbonitrile Hydrochloride] | 13000 | 95 to 98 | activity toward the 5-HT7 receptor being lost | 2880 ± 351 nM | 927 ± 927 |  | 
2 | Cl.Nc1nc(NCCc2ccccc2)nc(NCCc2c[nH]c3ccc(Br)cc23)n1 [Compound 3, N^2-(2-(5-Bromo-1H-Indol-3-yl)ethyl)-N^4-Phenethyl-1,3,5-Triazine-2,4,6-Triamine Hydrochloride] | 11000 | 82 to 85 |  | 126 ± 17 nM | 942 ± 112 | 234 ± 27 | 
3 | Cl.Nc1nc(NCCc2ccccc2)nc(NCCc2c[nH]c3ccc(Cl)cc23)n1 [Compound 4, N^2-(2-(5-Chloro-1H-Indol-3-yl)ethyl)-N^4-Phenethyl-1,3,5-Triazine-2,4,6-Triamine Hydrochloride] | 3910 ± 581 | 106 to 108 |  | 481 ± 23 nM | 559 ± 41 | 702 ± 48 | 14500
4 | COc1ccc2[nH]cc(CCNc3nc(N)nc(NCCc4ccccc4)n3)c2c1.Cl [Compound 5, N^2-(2-(5-Methoxy-1H-Indol-3-yl)ethyl)-N^4-Phenethyl-1,3,5-Triazine-2,4,6-Triamine Hydrochloride] | 3130 ± 758 | 111 to 115 |  | 629 ± 148 nM | 883 ± 108 | 509 ± 33 | 
5 | Cc1ccc2[nH]cc(CCNc3nc(N)nc(NCCc4ccccc4)n3)c2c1.Cl [Compound 6, N^2-(2-(5-Methyl-1H-Indol-3-yl)ethyl)-N^4-Phenethyl-1,3,5-Triazine-2,4,6-Triamine Hydrochloride] | 16600 | 118 to 121 |  | 100 ± 15 nM | 835 ± 168 | 714 ± 112 | 
6 | Cl.Nc1nc(NCCNc2ccccc2Cl)nc(NCCc2c[nH]c3ccccc23)n1 [Compound 7, N^2-(2-(1H-Indol-3-yl)ethyl)-N^4-(2-((2-Chlorophenyl)amino)ethyl)-1,3,5-Triazine-2,4,6-Triamine Hydrochloride] | 30800 | 105 to 108 | moderately active | 423 ± 37 nM | 2120 ± 352 | 892 ± 144 | 4290 ± 1030
7 | Cl.Nc1nc(NCCNc2cccc(Cl)c2)nc(NCCc2c[nH]c3ccccc23)n1 [Compound 8, N^2-(2-(1H-Indol-3-yl)ethyl)-N^4-(2-((3-Chlorophenyl)amino)ethyl)-1,3,5-Triazine-2,4,6-Triamine Hydrochloride] | 15600 | 77 to 82 | moderately active | 131 ± 16 nM | 1800 ± 264 | 4020 ± 719 | 1240 ± 257
8 | Cl.Nc1nc(NCCNc2ccc(Cl)cc2)nc(NCCc2c[nH]c3ccccc23)n1 [Compound 9, N^2-(2-(1H-Indol-3-yl)ethyl)-N^4-(2-((4-Chlorophenyl)amino)ethyl)-1,3,5-Triazine-2,4,6-Triamine Hydrochloride] | 16200 | 97 to 100 | active | 19 ± 4 nM | 2700 ± 581 | 641 ± 84 | 
9 | Cl.Nc1nc(NCCNc2ccccc2F)nc(NCCc2c[nH]c3ccccc23)n1 [Compound 10, N^2-(2-(1H-Indol-3-yl)ethyl)-N^4-(2-((2-Fluorophenyl)amino)ethyl)-1,3,5-Triazine-2,4,6-Triamine Hydrochloride] | 36500 | 94 to 97 | moderately active | 132 ± 9 nM | 1510 ± 362 | 982 ± 115 | 20400
10 | Cl.Nc1nc(NCCNc2cccc(F)c2)nc(NCCc2c[nH]c3ccccc23)n1 [Compound 11, N^2-(2-(1H-Indol-3-yl)ethyl)-N^4-(2-((3-Fluorophenyl)amino)ethyl)-1,3,5-Triazine-2,4,6-Triamine Hydrochloride] | 34600 | 74 to 79 | active | 24 ± 5 nM | 1280 ± 168 | 979 ± 237 | 13800
11 | COc1cccc(NCCNc2nc(N)nc(NCCc3c[nH]c4ccccc34)n2)c1.Cl [Compound 14, N^2-(2-(1H-Indol-3-yl)ethyl)-N^4-(2-((3-Methoxyphenyl)amino)ethyl)-1,3,5-Triazine-2,4,6-Triamine Hydrochloride] |  | 140 to 143 |  | 1040 ± 81 nM | 2450 ± 273 | 2790 ± 342 | 36000
12 | COc1ccc(NCCNc2nc(N)nc(NCCc3c[nH]c4ccccc34)n2)cc1.Cl [Compound 15, N^2-(2-(1H-Indol-3-yl)ethyl)-N^4-(2-((4-Methoxyphenyl)amino)ethyl)-1,3,5-Triazine-2,4,6-Triamine Hydrochloride] |  | 150 to 153 |  | 756 ± 107 nM |  |  | 
13 | Cl.Nc1nc(NCCc2c[nH]c3ccccc23)nc(NCCN2C(=O)c3ccccc3C2=O)n1 [Compound 16, 2-(2-((4-((2-(1H-Indol-3-yl)ethyl)amino)-6-Amino-1,3,5-Triazin-2-yl)amino)ethyl)isoindoline-1,3-Dione Hydrochloride] |  | 136 to 138 |  | > 1000 nM and 21600 nM | 22400 | 8760 ± 1760 | 13300
14 | Cl.Nc1nc(NCCc2c[nH]c3ccccc23)nc(NCCn2cnc3ccccc32)n1 [Compound 17, N^2-(2-(1H-Benzo[d]imidazol-1-yl)ethyl)-N^4-(2-(1H-Indol-3-yl)ethyl)-1,3,5-Triazine-2,4,6-Triamine Hydrochloride] | 63000 | 195 to 200 |  | 227 ± 37 nM | 11100 | 2630 ± 427 | 
15 | Cc1nc2ccccc2n1CCNc1nc(N)nc(NCCc2c[nH]c3ccccc23)n1.Cl [Compound 18, N^2-(2-(1H-indol-3-yl)ethyl)-N^4-(2-(2-methyl-1H-benzo[d]imidazol-1-yl)ethyl)-1,3,5-triazine-2,4,6-triamine hydrochloride] |  | 190 to 194 |  | > 1000 nM and 4130 nM | 9350 ± 831 | 1960 ± 269 | 
16 | Cl.Nc1nc(NCCc2c[nH]c3ccccc23)nc(NCCn2c(C(F)(F)F)nc3ccccc32)n1 [Compound 19, N^2-(2-(1H-Indol-3-yl)ethyl)-N^4-(2-(2-(Trifluoromethyl)-1H-Benzo[d]imidazol-1-yl)ethyl)-1,3,5-Triazine-2,4,6-Triamine Hydrochloride] | 76200 | 108 to 110 |  | > 1000 nM and 3460 nM | 4030 ± 537 | 825 ± 72 | 
17 | Cl.Nc1nc(NCCc2c[nH]c3ccccc23)nc(Nc2cccc(Cl)c2)n1 [Compound 20, N^2-(2-(1H-Indol-3-yl)ethyl)-N^4-(3-Chlorophenyl)-1,3,5-Triazine-2,4,6-Triamine Hydrochloride] | 14100 | 174 to 178 | inactive | 1950 ± 261 nM | 2690 ± 549 | 2230 ± 528 | 2270 ± 153
18 | Cl.Nc1nc(NCCc2c[nH]c3ccccc23)nc(Nc2ccc(F)cc2)n1 [Compound 21, N^2-(2-(1H-Indol-3-yl)ethyl)-N^4-(4-Fluorophenyl)-1,3,5-Triazine-2,4,6-Triamine Hydrochloride] |  | 232 to 235 | inactive | 2050 ± 419 nM | 884 ± 73 | 1770 ± 243 | 7030 ± 439
19 | COc1ccc(Nc2nc(N)nc(NCCc3c[nH]c4ccccc34)n2)cc1.Cl [Compound 22, N^2-(2-(1H-Indol-3-yl)ethyl)-N^4-(4-Methoxyphenyl)-1,3,5-Triazine-2,4,6-Triamine Hydrochloride] | 79800 | 194 to 196 | weakly active | 727 ± 107 nM | 3110 ± 438 | 3740 ± 539 | 
